Our source for the chromatographic logP, pest or weed control and inhibition values is patent US20230192617A1, “AZABICYCLIC(THIO)AMIDES AS FUNGICIDAL COMPOUNDS” (Bayer CropScience Aktiengesellschaft, priority 2020, published 2023).

Data set [1] can be described thus: Measurement of Log P values by HPLC on reversed phase columns (EEC directive 79/831 Annex V.A8). Format: physicochemical. Particulars: reversed phase HPLC column. The gist of the method:
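Log P derived from retention on reversed-phase columns (EEC directive 79/831 Annex V.A8), LC-UV, acetonitrile gradient 10% to 95% against water containing 0.1% formic acid, 0.001 M ammonium acetate, or 0.1% phosphoric acid; several values per method separated by "+".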

The test system of the next data set is Alternaria brassicae. As to the kind of experiment: In vivo preventive test on Alternaria brassicae (leaf spot on radish or cabbage). The note with it: 500 ppm of active ingredient, preventive spray on radish or cabbage, evaluated 3 to 4 days after inoculation, read-out: efficacy. The gist of the method:
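Protective spray on young radish or cabbage: actives in water diluted from DMSO/acetone/Tween 80, with solvent-only controls. Leaves were challenged after 24 h with a spore suspension, and plants were held at 100% RH, 20 °C for 3 to 4 days.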

The subject of data set [2] is Botrytis cinerea. The data set can be described thus: In vivo preventive test on Botrytis cinerea (grey mould). The note with it: 500 ppm of active ingredient, preventive spray on gherkin or cabbage, evaluated 4 to 5 days after inoculation, read-out: efficacy. The gist of the method:
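Preventive spray on cabbage or gherkin seedlings, with compound formulated in DMSO/acetone/Tween 80 and water-diluted, preceded spore inoculation by 24 hours. Cabbage was held 4 to 5 days at 20° C., 100% relative humidity; gherkin 4 to 5 days at 17° C., 90% relative humidity.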

The test system of another data set is Sphaerotheca fuliginea. The data set can be described thus: In vivo preventive test on Sphaerotheca fuliginea (powdery mildew on cucurbits). Particulars: Podosphaera fuliginea, 192 h; 500 ppm of active ingredient; preventive spray on gherkin; evaluated 8 days after inoculation; read-out: efficacy. The method, then:
B-4. in vivo preventive test on Sphaerotheca fuliginea (powdery mildew on cucurbits) [table] The active ingredients were made soluble and homogenized in a mixture of Dimethyl sulfoxide/Acetone/Tween® 80 and then diluted in water to the desired concentration. The young plants of gherkin were treated by spraying the active ingredient prepared as described above. Control plants were treated only with an aqueous solution of Acetone/Dimethyl sulfoxide/Tween® 80. After 24 hours, the plants were contaminated by spraying the leaves with an aqueous suspension of Sphaerotheca fuliginea spores. The contaminated gherkin plants were incubated for 8 days at 20° C. and at 70-80% relative humidity.

The subject of the next data set is Alternaria alternata. As to the kind of experiment: Alternaria alternata in vitro cell test. Particulars: 120 h, 20 ppm of active ingredient, liquid culture, 5 days incubation, spectrometric measurement of mycelium growth, read-out: efficacy (inhibition of fungal growth). The class given is cell-based. The gist of the method: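 Spectrometric readout of mycelial growth after 5-day incubation gauged compound effects on spore germination and growth of A. alternata in liquid medium. Compounds were delivered in DMSO at ≤1% final. Absorbance was compared with untreated controls to give inhibition.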

For data set [3], the system named is Colletotrichum lindemuthianum. The data set can be described thus: B-8. Colletotrichum lindemuthianum in vitro cell test. The class given is cell-based. Particulars: 144 h, 20 ppm of active ingredient, 6 days incubation, liquid culture, absorbance, read-out: efficacy (inhibition of fungal growth). The gist of the method: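 Liquid-culture germination/growth test: compounds in ≤1% final DMSO were added to spore-containing medium. Fungal growth was quantified spectrophotometrically after 6 days of incubation and expressed as inhibition versus untreated controls.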

The subject of data set [4] is Botrytis cinerea. As to the kind of experiment: B-11. Botrytis cinerea in vitro cell test. The class given is cell-based. The note with it: 144 h, 20 ppm of active ingredient, 6 days incubation, liquid culture, absorbance, read-out: efficacy (inhibition of fungal growth). The gist of the method:
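B. cinerea spores were grown in liquid culture with compound (DMSO ≤1% final). Mycelium growth was measured spectrometrically after 6 days, with inhibition taken as absorbance relative to untreated control wells.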

The mark [5] stands for this setting: method [a]: LC-UV, acidic range, 0.1% formic acid in water and acetonitrile as eluent.
Where [6] appears, read: method [b]: LC-UV, neutral range, 0.001 molar ammonium acetate solution in water and acetonitrile as eluent.

One may read the chromatographic logP as a lipophilicity value derived from retention on a column. A high value points to higher lipophilicity. As usually defined, the inhibition is the drop in the measured response relative to a control, in per cent.

Turning to `Cc1ccc(CCNC(=O)c2c(Oc3cccc(C(F)(F)F)c3)nnc3ccc(C)cc23)c(C)c1` [I-003], in data set [1] (setting [5]), the chromatographic logP came out at 4.47. Besides, the pest or weed control at 500 ppm with Alternaria brassicae, in the data set on Botrytis cinerea [2] and in the data set with Sphaerotheca fuliginea was 90 to 100% each time. For the same compound, the inhibition at 20 ppm (in the data set with Alternaria alternata; in data set [3]) was 90 to 100% each time.

Regarding `Cc1cccc(Oc2nnc3ccccc3c2C(=O)N[C@@H](C)c2cccc(C(F)(F)F)c2)c1` (racemic) [I-020], the chromatographic logP in data set [1] (setting [5]) turned out to be 3.79. Further, the pest or weed control at 500 ppm in the data set on Alternaria brassicae was 90 to 100%; with Botrytis cinerea [2], 90 to 100%; with Sphaerotheca fuliginea, 70 to 79%. Also, the results for the inhibition at 20 ppm (in the data set with Alternaria alternata; in data set [3]) were 80 to 89% and 70 to 79%, respectively.

Take `O=C(NCC(F)(F)c1ccc(Br)cc1Cl)c1c(Oc2cccc(C(F)F)c2)nnc2ccccc12` [I-035]: in data set [1] (setting [5]), the chromatographic logP turned out to be 4.14. Besides, the results for the pest or weed control at 500 ppm with Alternaria brassicae, with Botrytis cinerea [2] and with Sphaerotheca fuliginea were 90 to 100%, 90 to 100% and 70 to 79%, respectively. Moreover, the inhibition at 20 ppm (in the data set on Alternaria alternata; in data set [3]) was 90 to 100% in each case.

In data set [1] (setting [5]), `O=C(NC[C@@H](F)c1ccc(Cl)c(Cl)c1)c1c(Oc2cccc(C(F)(F)F)c2)cnc2ccccc12` (racemic) [I-059] registered a chromatographic logP of 4.47. In addition, the pest or weed control at 500 ppm in the data set on Botrytis cinerea [2] is 90 to 100%; with Sphaerotheca fuliginea, 70 to 79%. The inhibition at 20 ppm with Alternaria alternata and with Botrytis cinerea [4] was 90 to 100% throughout.

Compound `Cc1ccc(C(F)(F)CNC(=O)c2c(Oc3cccc(C(F)(F)F)c3)nnc3cc(C)ccc23)c(C)c1` [I-044] had a chromatographic logP in data set [1] (setting [5]) of 4.45. The pest or weed control at 500 ppm in the data set with Alternaria brassicae fell in the range of 90 to 100%; in the data set on Sphaerotheca fuliginea, 80 to 89%. Besides, the inhibition at 20 ppm (with Alternaria alternata; in data set [3]) was 90 to 100% in each case.

On to `O=C(N[C@H]1CCCc2cc(Br)ccc21)c1c(Oc2cccc(C(F)(F)F)c2)cnc2c1OCCO2` (racemic) [I-111], for which the chromatographic logP in data set [1] (setting [5]) is 4.03; in data set [1] (setting [6]), 3.99. In addition, the pest or weed control at 500 ppm in the data set with Alternaria brassicae, with Botrytis cinerea [2] and in the data set on Sphaerotheca fuliginea was 90 to 100% throughout. In addition, in data set [3], the inhibition at 20 ppm was 90 to 100%.

`Cc1ccc(C(F)(F)CNC(=O)c2c(Oc3cccc(C(F)(F)F)c3)nnc3ccccc23)c(C)c1` [I-008]: the chromatographic logP in data set [1] (setting [5]) was 4.27; in data set [1] (setting [6]) it was 4.22. Besides, the figures for the pest or weed control at 500 ppm in the data set with Alternaria brassicae, with Botrytis cinerea [2] and in the data set on Sphaerotheca fuliginea were 80 to 89%, 90 to 100% and 90 to 100%, respectively. Besides, the inhibition at 20 ppm was 90 to 100% in the data set on Alternaria alternata and 80 to 89% in data set [3].

Regarding `O=C(NCC(F)(F)c1ccc(Cl)cc1)c1c(Oc2cccc(C(F)(F)F)c2)nnc2ccccc12` [I-023], the chromatographic logP in data set [1] (setting [5]) came out at 4.13. For the same compound, the pest or weed control at 500 ppm in the data set with Alternaria brassicae, in the data set on Botrytis cinerea [2] and with Sphaerotheca fuliginea was 90 to 100% in each case. In addition, the inhibition at 20 ppm (with Alternaria alternata; in data set [3]) was 90 to 100% throughout.

In the case of `COc1cc([C@@H](F)CNC(=O)c2c(Oc3cccc(C(F)(F)F)c3)cnc3ccccc23)ccc1Cl` (racemic) [I-058], the chromatographic logP in data set [1] (setting [5]) came out at 4.05. The pest or weed control at 500 ppm in the data set on Alternaria brassicae, in the data set with Botrytis cinerea [2] and in the data set on Sphaerotheca fuliginea was 90 to 100% in each case. Besides, the inhibition at 20 ppm (in the data set on Alternaria alternata; in data set [3]; with Botrytis cinerea [4]) was 90 to 100% throughout.

`O=C(NC[C@H](F)c1ccc(Br)cc1Cl)c1c(Oc2cccc(C(F)(F)F)c2)cnc2ccccc12` (racemic) [I-041] came in with a chromatographic logP in data set [1] (setting [5]) of 4.56. The pest or weed control at 500 ppm in the data set on Alternaria brassicae, in the data set on Botrytis cinerea [2] and in the data set with Sphaerotheca fuliginea was 90 to 100% each time. For the same compound, the inhibition at 20 ppm (with Alternaria alternata; in data set [3]) was 90 to 100% each time.

`Cc1ccc(C(F)(F)CNC(=O)c2c(Oc3cccc(C(F)(F)F)c3)nnc3c2CCOCC3)c(C)c1` [I-114, N-[2-(2,4-dimethylphenyl)-2,2-difluoro-ethyl]-3-[3-(trifluoro-methyl)phenoxy]-5,6,8,9-tetrahydrooxepino[4,5-c]pyridazine-4-carboxamide] returned a chromatographic logP in data set [1] (setting [5]) of 3.58. For the same compound, the pest or weed control at 500 ppm in the data set with Alternaria brassicae lay in the range of 70 to 79%; in the data set on Botrytis cinerea [2] it was 90 to 100%; in the data set with Sphaerotheca fuliginea, 90 to 100%. Moreover, the inhibition at 20 ppm (with Alternaria alternata; in data set [3]) was 90 to 100% each time.

Consider `O=C(NCC(F)(F)c1ccc(Br)cc1Cl)c1c(Oc2cccc(C(F)(F)F)c2)nnc2ccccc12` [I-021], for which, in data set [1] (setting [5]), the chromatographic logP turned out to be 4.58. Moreover, the pest or weed control at 500 ppm in the data set with Alternaria brassicae, in the data set on Botrytis cinerea [2] and with Sphaerotheca fuliginea was 90 to 100% each time. The inhibition at 20 ppm (in the data set on Alternaria alternata; in data set [3]) was 90 to 100% throughout.

In the case of `O=C(NCC(F)(F)c1ccc(Cl)cc1)c1c(Oc2cccc(Cl)c2)nnc2ccccc12` [I-012], the pest or weed control at 500 ppm in the data set on Alternaria brassicae, in the data set on Botrytis cinerea [2] and in the data set on Sphaerotheca fuliginea was 90 to 100% in each case. For the same compound, the inhibition at 20 ppm (in the data set with Alternaria alternata; in data set [3]) was 90 to 100% throughout.

Turning to `O=C(NC[C@H](F)c1ccc(Cl)cc1Cl)c1c(Oc2cccc(C(F)(F)F)c2)cnc2ccccc12` (racemic) [I-043], the chromatographic logP in data set [1] (setting [5]) amounted to 4.46. Further, the pest or weed control at 500 ppm with Alternaria brassicae, in the data set with Botrytis cinerea [2] and with Sphaerotheca fuliginea was 90 to 100% each time. The inhibition at 20 ppm (in the data set on Alternaria alternata; in data set [3]) was 90 to 100% in each case.

Consider `O=C(NCC(F)(F)c1ccc(Br)cc1Cl)c1c(Oc2cncc(C(F)(F)F)c2)nnc2ccccc12` [I-027], for which the chromatographic logP in data set [1] (setting [5]) amounted to 4.08. Further, the pest or weed control at 500 ppm in the data set on Alternaria brassicae, in the data set with Botrytis cinerea [2] and in the data set on Sphaerotheca fuliginea was 90 to 100% throughout. Further, the inhibition at 20 ppm (with Alternaria alternata; in data set [3]) was 90 to 100% throughout.

Regarding `Cc1ccc(C(F)(F)CNC(=O)c2c(Oc3cncc(C(F)(F)F)c3)nnc3ccccc23)c(C)c1` [I-025], in data set [1] (setting [5]), the chromatographic logP was determined as 3.87. In addition, the pest or weed control at 500 ppm in the data set with Alternaria brassicae, in the data set on Botrytis cinerea [2] and in the data set on Sphaerotheca fuliginea was 90 to 100% each time. Also, the inhibition at 20 ppm (in the data set with Alternaria alternata; in data set [3]) was 90 to 100% each time.

In turn, `O=C(NCC(F)(F)c1ccc(Cl)cc1)c1c(Oc2cncc(C(F)(F)F)c2)nnc2ccccc12` [I-026] displayed a chromatographic logP in data set [1] (setting [5]) of 3.61. Further, the pest or weed control at 500 ppm in the data set on Alternaria brassicae, in the data set on Botrytis cinerea [2] and in the data set on Sphaerotheca fuliginea was 90 to 100% in each case. Moreover, the inhibition at 20 ppm (in the data set on Alternaria alternata; in data set [3]) was 90 to 100% throughout.

Take `Cc1ccc(CCNC(=O)c2c(Oc3cccc(C(F)(F)F)c3)nnc3cc(C)ccc23)c(C)c1` [I-004, N-[2-(2,4-dimethylphenyl)ethyl]-7-methyl-3-[3-(trifluoro-methyl)phenoxy]cinnoline-4-carboxamide]: the chromatographic logP in data set [1] (setting [5]) worked out at 4.51. The pest or weed control at 500 ppm in the data set with Alternaria brassicae, in the data set on Botrytis cinerea [2] and in the data set with Sphaerotheca fuliginea was 90 to 100% throughout. Also, the inhibition at 20 ppm (with Alternaria alternata; in data set [3]) was 90 to 100% in each case.

For the compound `COc1ccc2nnc(Oc3cccc(C(F)(F)F)c3)c(C(=O)NCCc3ccc(C)cc3C)c2c1` [I-010], the chromatographic logP in data set [1] (setting [5]) was found to be 4.29. In addition, the pest or weed control at 500 ppm in the data set on Alternaria brassicae was 80 to 89%; in the data set on Botrytis cinerea [2], 90 to 100%; with Sphaerotheca fuliginea it was 90 to 100%. Besides, the inhibition at 20 ppm with Alternaria alternata was 90 to 100%.
